A short description of data set [1]: Half life in Sprague-Dawley rat at 5 mg/kg, po. Type of data set: ADME, organism-based. The following applies: in vivo. Further details: dose 5 mg/kg, route oral.
The target in data set [2] is T1, 5-hydroxytryptamine receptor 4 (Homo sapiens, UniProt Q13639). As to the kind of experiment: Agonist activity at human 5HT4C receptor expressed in HEK293 cells assessed as accumulation of cAMP by flash plate adenylyl cyclase activation assay. The format is functional, cell-based.
T1 sequence (Q13639 whole entry): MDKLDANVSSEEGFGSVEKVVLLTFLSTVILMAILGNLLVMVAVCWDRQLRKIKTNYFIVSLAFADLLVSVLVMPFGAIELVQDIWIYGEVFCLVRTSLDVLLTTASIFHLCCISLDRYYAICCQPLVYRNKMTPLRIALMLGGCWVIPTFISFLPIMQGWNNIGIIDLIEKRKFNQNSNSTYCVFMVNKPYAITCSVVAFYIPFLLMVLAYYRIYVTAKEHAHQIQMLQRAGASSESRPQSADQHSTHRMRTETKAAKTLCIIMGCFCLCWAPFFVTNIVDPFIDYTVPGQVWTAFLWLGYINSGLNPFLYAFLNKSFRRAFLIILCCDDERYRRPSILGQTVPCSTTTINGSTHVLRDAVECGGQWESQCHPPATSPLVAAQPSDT
Data set [3] can be described thus: Oral bioavailability in Sprague-Dawley rat at 5 mg/kg, po. Type of data set: ADME, organism-based. The note with it: in vivo.
The species entered for a further data set is Homo sapiens. Briefly: Selectivity ratio of Ki for human 5HT3A receptor to Ki for human 5HT4C receptor.
In a further data set the target is hERG (KCNH2) (Homo sapiens, UniProt Q12809). As to the kind of experiment: Inhibition of human ERG potassium channel expressed in CHO-K1 cells at 3 uM by whole cell voltage clamp assay. The format is cell-based. The note with it: CHO-K1 cells expressing human ERG potassium channel.
hERG (KCNH2), sequence (Q12809 whole entry): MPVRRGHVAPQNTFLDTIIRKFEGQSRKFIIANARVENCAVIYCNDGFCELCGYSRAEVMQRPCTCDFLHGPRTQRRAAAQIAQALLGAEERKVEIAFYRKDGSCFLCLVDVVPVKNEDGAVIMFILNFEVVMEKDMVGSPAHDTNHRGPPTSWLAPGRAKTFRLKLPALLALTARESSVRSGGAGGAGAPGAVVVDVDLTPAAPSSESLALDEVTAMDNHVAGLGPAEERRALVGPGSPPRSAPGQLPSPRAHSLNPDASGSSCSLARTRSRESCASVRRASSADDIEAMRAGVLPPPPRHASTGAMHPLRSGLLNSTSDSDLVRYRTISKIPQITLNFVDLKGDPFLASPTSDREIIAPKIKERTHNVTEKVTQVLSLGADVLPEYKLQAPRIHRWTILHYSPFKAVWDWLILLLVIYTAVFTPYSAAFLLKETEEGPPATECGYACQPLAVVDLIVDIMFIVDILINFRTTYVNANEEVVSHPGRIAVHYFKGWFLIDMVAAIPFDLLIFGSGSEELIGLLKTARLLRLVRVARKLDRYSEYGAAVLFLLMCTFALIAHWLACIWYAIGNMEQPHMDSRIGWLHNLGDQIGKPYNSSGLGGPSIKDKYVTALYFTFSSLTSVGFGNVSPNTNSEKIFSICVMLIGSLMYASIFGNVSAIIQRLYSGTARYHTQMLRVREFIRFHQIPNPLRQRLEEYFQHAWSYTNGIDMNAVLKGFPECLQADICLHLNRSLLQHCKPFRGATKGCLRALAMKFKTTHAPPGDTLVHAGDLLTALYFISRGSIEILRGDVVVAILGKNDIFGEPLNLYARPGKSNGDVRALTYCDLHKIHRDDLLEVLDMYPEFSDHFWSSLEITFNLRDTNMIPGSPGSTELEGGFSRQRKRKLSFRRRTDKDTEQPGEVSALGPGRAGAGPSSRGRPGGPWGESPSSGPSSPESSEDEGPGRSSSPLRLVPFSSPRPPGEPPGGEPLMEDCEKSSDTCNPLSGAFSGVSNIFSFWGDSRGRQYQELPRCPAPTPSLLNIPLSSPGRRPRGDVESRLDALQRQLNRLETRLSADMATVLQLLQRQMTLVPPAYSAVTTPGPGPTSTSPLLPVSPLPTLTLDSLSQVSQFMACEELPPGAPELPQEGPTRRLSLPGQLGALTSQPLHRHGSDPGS
A short description of the next data set: in vitro. The note with it: rat, liver microsomes.
Data set [4] is described as follows: AUC (0 to t) in Sprague-Dawley rat at 5 mg/kg, po. The format is ADME, organism-based. Also on record: dose 5 mg/kg, route oral. The following applies: plasma.
The target in data set [5] is T1, 5-hydroxytryptamine receptor 4. Briefly: Displacement of [H]GR-113808 from human 5HT4C receptor expressed in HEK293 cells by liquid scintillation counting. Type of data set: cell-based.
The target is the same in data set [6]. As to the kind of experiment: Intrinsic activity at human 5HT4C receptor expressed in HEK293 cells assessed as accumulation of cAMP by flash plate adenylyl cyclase activation assay relative to serotonin. Type of data set: functional, cell-based.
A short description of data set [7]: Permeability across human Caco-2 cells assessed as permeability coefficient. Type of data set: ADME, cell-based. The following applies: read-out: permeability.
Data set [8] can be described thus: Cmax in Sprague-Dawley rat at 5 mg/kg, po. Type of data set: ADME, organism-based. Also on record: dose 5 mg/kg, route oral. The following applies: in vivo.
In data set [9] the test system is Rattus norvegicus. Briefly: Induction of 5HT4 receptor-mediated relaxation of esophagus in iv dosed anesthetized Sprague-Dawley rat by digital sonomicrometry. Type of data set: functional.
Data set [10] in a line: Oral bioavailability in human. The format is ADME, organism-based. The following applies: in vivo.
In data set [11] the target is 5-hydroxytryptamine receptor 6 (Homo sapiens) (UniProt P50406). Briefly: Inhibition of 5HT6 receptor at 10 uM.
5-hydroxytryptamine receptor 6 (Homo sapiens), sequence (P50406 whole entry): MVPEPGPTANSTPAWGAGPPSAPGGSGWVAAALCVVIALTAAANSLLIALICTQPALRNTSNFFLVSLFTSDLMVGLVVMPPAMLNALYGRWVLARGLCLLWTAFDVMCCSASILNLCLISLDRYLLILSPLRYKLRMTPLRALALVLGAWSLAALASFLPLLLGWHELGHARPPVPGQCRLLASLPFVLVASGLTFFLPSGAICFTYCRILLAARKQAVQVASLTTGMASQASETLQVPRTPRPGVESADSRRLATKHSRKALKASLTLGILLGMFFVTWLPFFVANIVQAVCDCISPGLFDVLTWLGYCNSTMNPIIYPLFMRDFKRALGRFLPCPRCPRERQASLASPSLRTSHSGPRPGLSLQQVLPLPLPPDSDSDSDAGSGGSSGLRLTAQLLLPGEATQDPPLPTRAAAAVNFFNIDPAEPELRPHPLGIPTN
For data set [12], the target named is 5-hydroxytryptamine receptor 1D (Homo sapiens) (UniProt P28221). As to the kind of experiment: Inhibition of 5HT1D receptor at 10 uM.
5-hydroxytryptamine receptor 1D (Homo sapiens), sequence (P28221 whole entry): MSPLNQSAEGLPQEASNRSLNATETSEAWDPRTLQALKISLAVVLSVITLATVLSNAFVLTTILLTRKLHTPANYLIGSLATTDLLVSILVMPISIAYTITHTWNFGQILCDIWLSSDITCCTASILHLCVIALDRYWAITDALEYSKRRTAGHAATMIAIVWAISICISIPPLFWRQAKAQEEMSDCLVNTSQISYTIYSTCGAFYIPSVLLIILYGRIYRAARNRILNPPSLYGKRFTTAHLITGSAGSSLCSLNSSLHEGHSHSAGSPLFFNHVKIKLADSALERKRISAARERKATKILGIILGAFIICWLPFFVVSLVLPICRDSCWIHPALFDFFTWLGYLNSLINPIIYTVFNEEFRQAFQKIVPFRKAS
Data set [13] deals with 5-hydroxytryptamine receptor 5A (Homo sapiens) (UniProt P47898). As to the kind of experiment: Inhibition of 5HT5A receptor at 10 uM.
5-hydroxytryptamine receptor 5A (Homo sapiens), sequence (P47898 whole entry): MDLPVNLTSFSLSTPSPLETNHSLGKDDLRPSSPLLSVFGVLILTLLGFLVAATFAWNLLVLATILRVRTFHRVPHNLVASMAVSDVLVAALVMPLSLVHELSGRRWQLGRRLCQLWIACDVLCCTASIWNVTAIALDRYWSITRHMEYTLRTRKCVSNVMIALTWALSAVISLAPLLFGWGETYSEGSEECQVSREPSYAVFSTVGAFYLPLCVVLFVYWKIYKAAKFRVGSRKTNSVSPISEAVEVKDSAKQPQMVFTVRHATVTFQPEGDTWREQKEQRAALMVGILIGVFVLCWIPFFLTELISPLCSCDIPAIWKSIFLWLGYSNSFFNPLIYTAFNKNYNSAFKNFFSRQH
For data set [14], the target named is 5-hydroxytryptamine receptor 7 (Homo sapiens) (UniProt P34969). As to the kind of experiment: Inhibition of 5HT7 receptor at 10 uM.
5-hydroxytryptamine receptor 7 (Homo sapiens), sequence (P34969 whole entry): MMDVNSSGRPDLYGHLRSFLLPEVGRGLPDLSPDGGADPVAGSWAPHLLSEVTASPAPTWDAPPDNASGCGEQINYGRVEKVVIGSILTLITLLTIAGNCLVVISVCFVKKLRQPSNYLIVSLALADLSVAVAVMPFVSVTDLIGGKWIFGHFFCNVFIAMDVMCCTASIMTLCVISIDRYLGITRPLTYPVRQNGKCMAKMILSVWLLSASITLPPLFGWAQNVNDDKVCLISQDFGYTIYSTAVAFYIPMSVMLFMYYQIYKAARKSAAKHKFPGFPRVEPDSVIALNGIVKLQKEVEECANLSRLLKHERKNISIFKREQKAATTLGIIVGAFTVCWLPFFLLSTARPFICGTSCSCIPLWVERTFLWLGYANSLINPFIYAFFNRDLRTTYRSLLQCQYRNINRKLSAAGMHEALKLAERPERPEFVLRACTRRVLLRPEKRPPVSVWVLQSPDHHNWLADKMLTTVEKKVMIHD
For data set [15], the target named is T2, 5-hydroxytryptamine receptor 1A (Homo sapiens) (UniProt P08908).
T2 sequence (whole entry): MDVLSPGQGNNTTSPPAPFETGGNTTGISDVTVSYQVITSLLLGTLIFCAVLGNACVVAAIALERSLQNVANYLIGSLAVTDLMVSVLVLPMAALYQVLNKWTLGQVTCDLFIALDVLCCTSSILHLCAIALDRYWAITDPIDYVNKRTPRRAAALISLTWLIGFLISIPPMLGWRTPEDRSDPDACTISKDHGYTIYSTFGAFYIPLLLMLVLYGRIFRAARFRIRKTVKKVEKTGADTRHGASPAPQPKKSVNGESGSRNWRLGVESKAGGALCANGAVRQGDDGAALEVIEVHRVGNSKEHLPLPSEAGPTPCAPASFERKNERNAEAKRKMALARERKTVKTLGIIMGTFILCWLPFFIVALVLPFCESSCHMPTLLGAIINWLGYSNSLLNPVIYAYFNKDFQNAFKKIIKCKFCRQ
As to the kind of experiment: Inhibition of 5HT1A receptor at 10 uM.

Data set [16] has as its target 5-hydroxytryptamine receptor 2A (Homo sapiens) (UniProt P28223). As to the kind of experiment: Inhibition of 5HT2A receptor at 10 uM.
The subject of data set [17] is Rattus norvegicus. Briefly: Induction of 5HT4 receptor-mediated relaxation of esophagus in intraduodenal dosed anesthetized Sprague-Dawley rat by digital sonomicrometry. Type of data set: functional, organism-based.
Data set [18] has as its target T3, 5-hydroxytryptamine receptor 2C (Homo sapiens) (UniProt P28335).
T3 sequence (whole entry): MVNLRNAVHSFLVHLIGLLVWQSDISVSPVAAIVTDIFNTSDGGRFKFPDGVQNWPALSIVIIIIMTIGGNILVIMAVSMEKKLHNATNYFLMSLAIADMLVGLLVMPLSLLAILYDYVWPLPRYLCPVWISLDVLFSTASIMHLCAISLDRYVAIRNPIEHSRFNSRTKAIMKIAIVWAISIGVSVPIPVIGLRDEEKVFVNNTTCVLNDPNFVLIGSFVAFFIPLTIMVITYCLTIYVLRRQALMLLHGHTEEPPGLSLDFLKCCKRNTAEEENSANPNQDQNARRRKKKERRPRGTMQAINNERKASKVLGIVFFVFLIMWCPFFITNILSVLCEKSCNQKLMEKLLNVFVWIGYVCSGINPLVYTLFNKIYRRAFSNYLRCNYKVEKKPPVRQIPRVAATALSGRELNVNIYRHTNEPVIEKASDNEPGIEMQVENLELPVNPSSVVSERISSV
As to the kind of experiment: Inhibition of 5HT1C receptor at 10 uM.

The target of data set [19] is T3, 5-hydroxytryptamine receptor 2C (Homo sapiens). Briefly: Inhibition of 5HT2C receptor at 10 uM.
In data set [20] the test system is Cavia porcellus. Briefly: Increase in colonic transit in Duncan Hartley guinea pig colonic transit model assessed as prokinetic activity at 3 mg/kg, sc relative to vehicle treated control. The format is functional, organism-based. Further details: dose 3 mg/kg.
Data set [21] deals with Rattus norvegicus. Briefly: Induction of 5HT4 receptor-mediated relaxation of esophagus in anesthetized Sprague-Dawley rat at 3 mg/kg, intraduodenally by digital sonomicrometry. Type of data set: functional, organism-based. Also on record: dose 3 mg/kg.
Data set [22] is described as follows: Oral bioavailability in Beagle dog at 2 mg/kg, po. The following applies: in vivo. Type of data set: ADME, organism-based, Canis lupus familiaris.
A short description of data set [23]: Cmax in Beagle dog at 2 mg/kg, po. Type of data set: ADME, organism-based, Canis lupus familiaris. Also on record: dose 2 mg/kg, route oral. The following applies: in vivo.
In data set [24] the target is 5-hydroxytryptamine receptor 2B (Homo sapiens) (UniProt P41595). As to the kind of experiment: Inhibition of 5HT2B receptor at 10 uM.
5-hydroxytryptamine receptor 2B (Homo sapiens), sequence (P41595 whole entry): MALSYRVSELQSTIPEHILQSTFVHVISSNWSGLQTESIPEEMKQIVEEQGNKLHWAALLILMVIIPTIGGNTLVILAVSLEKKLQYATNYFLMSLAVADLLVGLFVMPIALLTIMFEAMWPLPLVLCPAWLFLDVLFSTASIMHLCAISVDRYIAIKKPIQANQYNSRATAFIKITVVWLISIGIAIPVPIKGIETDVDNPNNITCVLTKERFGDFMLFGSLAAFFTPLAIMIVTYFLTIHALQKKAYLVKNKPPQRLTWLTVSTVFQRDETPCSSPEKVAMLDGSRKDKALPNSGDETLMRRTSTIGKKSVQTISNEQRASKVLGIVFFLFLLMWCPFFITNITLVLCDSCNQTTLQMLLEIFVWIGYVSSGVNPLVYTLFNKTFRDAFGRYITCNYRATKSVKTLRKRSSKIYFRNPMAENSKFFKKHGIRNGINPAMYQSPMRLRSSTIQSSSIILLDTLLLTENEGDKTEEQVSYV
Data set [25] deals with Cavia porcellus. Briefly: Induction of colon longitudinal muscle contraction in sc dosed Duncan Hartley guinea pig. The following applies: Muscle tissue. The format is functional, organism-based.

This note sets out measurements from ChEMBL document CHEMBL1153520, “A multivalent approach to the design and discovery of orally efficacious 5-HT4 receptor agonists” (J Med Chem, 2009).

pEC50, pKi: −log10 of the molar value. Calls of active or inactive are those of the source.

5-hydroxytryptamine receptor 2A (Homo sapiens), sequence (P28223 whole entry): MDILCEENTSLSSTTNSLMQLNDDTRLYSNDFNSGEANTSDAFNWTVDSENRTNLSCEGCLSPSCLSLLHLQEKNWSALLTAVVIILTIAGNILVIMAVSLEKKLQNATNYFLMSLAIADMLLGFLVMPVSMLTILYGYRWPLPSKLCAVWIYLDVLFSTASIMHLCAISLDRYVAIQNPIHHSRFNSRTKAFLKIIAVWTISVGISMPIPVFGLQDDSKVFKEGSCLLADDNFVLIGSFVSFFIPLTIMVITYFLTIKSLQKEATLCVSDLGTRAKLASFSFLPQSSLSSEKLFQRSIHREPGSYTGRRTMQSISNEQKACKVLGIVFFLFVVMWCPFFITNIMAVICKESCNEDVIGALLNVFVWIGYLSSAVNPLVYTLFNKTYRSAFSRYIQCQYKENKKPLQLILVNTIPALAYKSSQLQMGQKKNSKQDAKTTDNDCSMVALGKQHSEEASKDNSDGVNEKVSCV

`CC(C)n1c(=O)c(C(=O)N[C@H]2C[C@H]3CC[C@@H](C2)N3CCCCCCCN2CCN(S(C)(=O)=O)CC2)cc2ccccc21`: the half-life (usually the time needed for the level to fall by half in the phase considered) in [1] was 20.3 h; in “in vitro” it was more than 1.5 h. Moreover, in [2], the pEC50 (commonly the EC50 on a negative log10 scale, so that one unit is a factor of ten) is 8.60. Besides, in data set [3], the bioavailability (in general, dose-corrected exposure relative to a reference, in per cent) is 20%. Moreover, the Ratio Ki in the data set listed under Homo sapiens was 2600. In addition, the inhibition – broadly, the drop in the measured response relative to a control, in per cent – at 3 µM against hERG (KCNH2) came out at 46%. In [4], the AUC(0-t) (in general, exposure summed from dosing to a finite time, without extrapolation to infinity) is 83 ng·h/mL. Besides, in data set [5], the negative logarithm of the Ki (pKi) (as a rule, the Ki on a negative log10 scale, so that one unit is a factor of ten) was 8.00. Further, the Intrinsic activity in data set [6] was more than 100%. In data set [7], the Papp was found to be 22 ×10⁻⁶ cm/s. In data set [8], the Cmax (in general, the peak of the concentration-time curve) came to 10 ng/mL.

For `CC(C)n1c(=O)c(C(=O)N[C@H]2C[C@H]3CC[C@@H](C2)N3CCCN2CCN(S(C)(=O)=O)CC2)cc2ccccc21`, the half-life in data set [1] was 7.9 h; in the data set “in vitro”, 0.683 h. Besides, the pEC50 in data set [2] is 8.80. The molecule further registered a bioavailability in [3] of 38%. The Ratio Ki in the data set listed under Homo sapiens came to 2300. The molecule further displayed an inhibition at 3 µM against hERG (KCNH2) of 38%. In addition, the AUC(0-t) in data set [4] stood at 183 ng·h/mL. Moreover, the negative logarithm of the Ki (pKi) in [5] was 7.40. In addition, the Intrinsic activity in [6] is more than 100%. In [7], the Papp turned out to be 20 ×10⁻⁶ cm/s. The Cmax in data set [8] was determined as 34 ng/mL.

For `CCCCCNC(=N)N/N=C/c1c[nH]c2ccc(OC)cc12` [TEGASEROD], the half-life in data set [1] was 1.8 h; in the data set “in vitro”, more than 1.5 h. Moreover, in the data set with Rattus norvegicus [9], the 50% effective dose (ED50) (usually the midpoint of the dose-response relation) came out at 0.0106 mg/kg. The bioavailability was 5% in data set [3] and 10% in [10]. This molecule also had an exposure AUC(0-t) in [4] of 21 ng·h/mL. In addition, the Papp in [7] came out at 11 ×10⁻⁶ cm/s. In addition, the Cmax in data set [8] amounted to 6 ng/mL.

`COc1cc(N)c(Cl)cc1C(=O)NC1CCN(CCCOc2ccc(F)cc2)CC1OC` (stereo unspecified) [CISAPRIDE]: the ED50 in the data set on Rattus norvegicus [9] was determined as 0.142 mg/kg.

With `CC(C)n1c(=O)c(C(=O)N[C@H]2C[C@H]3CC[C@@H](C2)N3C[C@H](O)CN2CCN(S(C)(=O)=O)CC2)cc2ccccc21`, the pEC50 in [2] was 8.90. In addition, in the data set listed under Homo sapiens, the Ratio Ki stood at 1300. The molecule also gave an inhibition at 3 µM on hERG (KCNH2) of 6%. This molecule gave a pKi in data set [5] of 7.30. Further, in data set [6], the Intrinsic activity was more than 100%. Besides, in [7], the Papp turned out to be 20 ×10⁻⁶ cm/s.

In the case of `CC(C)n1c(=O)c(C(=O)N[C@H]2C[C@H]3CC[C@@H](C2)N3C[C@@H](O)CN2CCN(S(C)(=O)=O)CC2)cc2ccccc21`, the half-life in [1] was 5.2 h; in “in vitro”, more than 1.5 h. The figures for the pEC50 (in [2]; in the data set on Cavia porcellus [25]) were 9.40 and 8.60, respectively. The inhibition in [11], in [12], in data set [13], in data set [14], in data set [15] and in data set [16] was less than 50% throughout. Also, the inhibition in data set [18], in [19] and in data set [24] was less than 50% throughout. Moreover, the Activity result in the data set with Rattus norvegicus [9] and in the data set with Rattus norvegicus [17] was “Dose-dependent effect” throughout. Besides, it took a dose of 0.016 mg/kg to reach the 50% effect level in the data set on Rattus norvegicus [9] (ED50). The bioavailability in [3] is 20%; in data set [22], 63%. The Ratio Ki in the data set filed under Homo sapiens turned out to be 7400. At hERG (KCNH2), this molecule had an inhibition at 3 µM of 4%. This molecule also came in with an area under the curve AUC(0-t) in data set [4] of 200 ng·h/mL. Besides, the pKi in data set [5] is 7.90. Besides, the Intrinsic activity in [6] is 94%. Moreover, the Papp in data set [7] is 14 ×10⁻⁶ cm/s. Moreover, the outcome in the data set on Cavia porcellus [20] and in the data set on Rattus norvegicus [21] was Active. The figures for the Cmax in data set [23] and in data set [8] were 320 ng/mL and 31 ng/mL, respectively.

Turning to `CC(C)n1c(=O)c(C(=O)N[C@H]2C[C@H]3CC[C@@H](C2)N3CCCCCCCN2CCN(c3ccccc3)CC2)cc2ccccc21`, the negative logarithm of the EC50 (pEC50) in data set [2] is 8.10. For the same molecule, the Ratio Ki in the data set listed under Homo sapiens amounted to 5300. In addition, on hERG (KCNH2), the inhibition at 3 µM was 97%. Also, in data set [5], the pKi is 8.40. Moreover, the Intrinsic activity in data set [6] is more than 100%. For the same molecule, the Papp in data set [7] stood at 20 ×10⁻⁶ cm/s.
